Earlier results, collected in patent US8333959B2, “Ex-vivo application of solid microparticulate therapeutic agents” (Baxter International Inc., priority 2004, dated 2012).

Tested on: HIV-infected macrophages

## CC(C)(C)NC(=O)[C@@H]1C[C@@H]2CCCC[C@@H]2CN1C[C@@H](O)[C@H](Cc1ccccc1)NC(=O)[C@H](CC(N)=O)NC(=O)c1ccc2ccccc2n1 [saquinavir]
HIV-infected macrophages, in vitro, solution vs nanoparticulate formulation
  antiviral activity in HIV-infected macrophages: little antiviral activity
Concentration of 100 nM, chronically HIV-infected macrophages
  antiviral activity in chronically HIV-infected macrophages: completely inactive
